Measured values reported in patent publication US20250255981A1, “IMMUNOMODULATORY ANTIBODY-DRUG CONJUGATES” (Seagen Inc., priority 2022, published 2025).
Values after ≈ are worked out from the molar mass of the structure shown.

test system: THP1-Dual™ cells (IRF-Lucia luciferase reporter); experiment: THP1-Dual™ cell reporter assay; format: cell-based, human; conditions: ADC: drug linker conjugated to targeted mAb, 48 h; some values average of multiple experiments
Method: Potency of compounds and ADCs was evaluated using the THP1-Dual™ cells (Invivogen PN: thpd-nfis [also referred to as THP1 dual reporter cells]), which contain an IRF-Lucia luciferase reporter. Cells were cultured in RPMI-1640 (Gibco) with 10% heat-inactivated fetal bovine serum, Pen-Strep (100 U/mL-100 […], Gibco), HEPES (10 mM, Gibco)), sodium pyruvate (1 mM, Gibco), MEM non-essential amino acids (1×, Gibco), GlutaMAX (1×, Gibco), and beta-mercaptoethanol (55 μM, Gibco). Cells were plated in a 96-well flat bottom tissue culture-treated clear polystyrene plate (Corning Costar #3596) at ˜100,000 cells per well in 200 μL with the indicated concentration of the compound or ADC. The supernatant was harvested at 24 hours (compounds) or 48 hours (ADC) post plating for the reporter assay, or as indicated. To measure Lucia reporter signal, 10 µL of the supernatant was combined with 40 µL of QUANTI-Luc™ Luminescence assay reagent (Invivogen PN: rep-qlc1) in a 96-well clear flat bottom tissue culture-treated black polystyrene plate (Corning Costar #3603) and read on a Perkin Elmer Envision plate reader.

SMILES	EC50, Lucia reporter signal
CCn1nc(C)cc1C(=O)Nc1nc2cc(C(N)=O)cc(OC)c2n1C/C=C/Cn1c(NC(=O)c2cc(C)nn2CC)nc2cc(C(N)=O)cc(OCCCN(C)C(=O)[C@H](CC(=O)O)NC(=O)CCN3C(=O)C=CC3=O)c21 [Compound 17, (S,E)-4-((3-((5-carbamoyl-1-(4-(5-carbamoyl-2-(1-ethyl-3-methyl-1H-pyrazole-5-carboxamido)-7-methoxy-1H-benzo[d]imidazol-1-yl)but-2-en-1-yl)-2-(1-ethyl-3-methyl1H-pyrazole-5-carboxamido)-1H-benzo[d]imidazol-7-yl)oxy)propyl)(methyl)amino)-3-(3-(2,5-dioxo-2,5-dihydro-1H-pyrrol-1-yl)propanamido)-4-oxobutanoic acid]	2.2 ng/mL (≈ 0.00208 µM)
CCn1nc(C)cc1C(=O)Nc1nc2cc(C(N)=O)cc(OC)c2n1C/C=C/Cn1c(NC(=O)c2cc(C)nn2CC)nc2cc(C(N)=O)cc(OCCCN(C)C(=O)[C@H](CO)NC(=O)CCN3C(=O)C=CC3=O)c21 [Compound 24, (S,E)-1-(4-(5-carbamoyl-2-(1-ethyl-3-methyl-1H-pyrazole-5-carboxamido)-7-methoxy-1H-benzo[d]imidazol-1-yl)but-2-en-1-yl)-7-(3-(2-(3-(2,5-dioxo-2,5-dihydro-1H-pyrrol-1-yl)propanamido)-3-hydroxy-N-methylpropanamido)propoxy)-2-(1-ethyl-3-methyl-1H-pyrazole-5-carboxamido)-1H-benzo[d]imidazole-5-carboxamide]	2.1 ng/mL (≈ 0.00203 µM)
CCn1nc(C)cc1C(=O)Nc1nc2cc(S(N)(=O)=O)ccc2n1C/C=C/Cn1c(NC(=O)c2cc(C)nn2CC)nc2cc(C(N)=O)cc(OCCCN(C)C(=O)CCN3C(=O)C=CC3=O)c21 [Compound 25, (E)-7-(3-(3-(2,5-dioxo-2,5-dihydro-1H-pyrrol-1-yl)-N-methylpropanamido)propoxy)-2-(1-ethyl-3-methyl-1H-pyrazole-5-carboxamido)-1-(4-(2-(1-ethyl-3-methyl-1H-pyrazole-5-carboxamido)-5-sulfamoyl-1H-benzo[d]imidazol-1-yl)but-2-en-1-yl)-1H-benzo[d]imidazole-5-carboxamide]	307 ng/mL (≈ 0.323 µM)
CCn1nc(C)cc1C(=O)Nc1nc2cc(C(N)=O)cc(OC)c2n1C/C=C/Cn1c(NC(=O)c2cc(C)nn2CC)nc2cc(C(N)=O)cc(OCCC3CN(C(=O)CCN4C(=O)C=CC4=O)C3)c21 [Compound 26, (E)-1-(4-(5-carbamoyl-2-(1-ethyl-3-methyl-1H-pyrazole-5-carboxamido)-7-methoxy-1H-benzo[d]imidazol-1-yl)but-2-en-1-yl)-7-(2-(1-(3-(2,5-dioxo-2,5-dihydro-1H-pyrrol-1-yl)propanoyl)azetidin-3-yl)ethoxy)-2-(1-ethyl-3-methyl-1H-pyrazole-5-carboxamido)-1H-benzo[d]imidazole-5-carboxamide]	14.4 ng/mL (≈ 0.015 µM)
CCn1nc(C)cc1C(=O)Nc1nc2cc(C(N)=O)cc(OC)c2n1C/C=C/Cn1c(NC(=O)c2cc(C)nn2CC)nc2cc(C(N)=O)cc(OCCCOC3CN(C(=O)CCN4C(=O)C=CC4=O)C3)c21 [Compound 27, (E)-1-(4-(5-carbamoyl-2-(1-ethyl-3-methyl-1H-pyrazole-5-carboxamido)-7-methoxy-1H-benzo[d]imidazol-1-yl)but-2-en-1-yl)-7-(3-((1-(3-(2,5-dioxo-2,5-dihydro-1H-pyrrol-1-yl)propanoyl)azetidin-3-yl)oxy)propoxy)-2-(1-ethyl-3-methyl-1H-pyrazole-5-carboxamido)-1H-benzo[d]imidazole-5-carboxamide]	10.4 ng/mL (≈ 0.0105 µM)
CCn1nc(C)cc1C(=O)Nc1nc2cc(C(=O)OC)cc(OC)c2n1C/C=C/Cn1c(NC(=O)c2cc(C)nn2CC)nc2cc(C(=O)OC)cc(OCCCN(C)C(=O)CCN3C(=O)C=CC3=O)c21 [compound 66, methyl (E)-7-(3-(3-(2,5-dioxo-2,5-dihydro-1H-pyrrol-1-yl)-N-methylpropanamido)propoxy)-2-(1-ethyl-3-methyl-1H-pyrazole-5-carboxamido)-1-(4-(2-(1-ethyl-3-methyl-1H-pyrazole-5-carboxamido)-7-methoxy-5-(methoxycarbonyl)-1H-benzo[d]imidazol-1-yl)but-2-en-1-yl)-1H-benzo[d]imidazole-5-carboxylate]	>10,000 ng/mL
CCn1nc(C)cc1C(=O)Nc1nc2cc(C(=O)OC)cc(OC)c2n1C/C=C/Cn1c(NC(=O)c2cc(C)nn2CC)nc2cc(C(=O)OC)cc(OCCCN(C)C(=O)OCc3ccc(O[C@@H]4O[C@H](C(=O)O)[C@@H](O)[C@H](O)[C@H]4O)cc3NC(=O)CCNC(=O)CCN3C(=O)C=CC3=O)c21 [compound 67]	>10,000 ng/mL
CCn1nc(C)cc1C(=O)Nc1nc2cc(C(=O)O)cc(OC)c2n1C/C=C/Cn1c(NC(=O)c2cc(C)nn2CC)nc2cc(C(=O)O)cc(OCCCN(C)C(=O)CCN3C(=O)C=CC3=O)c21 [compound 68, (E)-1-(4-(5-carboxy-2-(1-ethyl-3-methyl-1H-pyrazole-5-carboxamido)-7-methoxy-1H-benzo[d]imidazol-1-yl)but-2-en-1-yl)-7-(3-(3-(2,5-dioxo-2,5-dihydro-1H-pyrrol-1-yl)-N-methylpropanamido)propoxy)-2-(1-ethyl-3-methyl-1H-pyrazole-5-carboxamido)-1H-benzo[d]imidazole-5-carboxylic acid]	>10,000 ng/mL
CCn1nc(C)cc1C(=O)Nc1nc2cc(C(=O)O)cc(OC)c2n1C/C=C/Cn1c(NC(=O)c2cc(C)nn2CC)nc2cc(C(=O)O)cc(OCCCN(C)C(=O)OCc3ccc(O[C@@H]4O[C@H](C(=O)O)[C@@H](O)[C@H](O)[C@H]4O)cc3NC(=O)CCNC(=O)CCN3C(=O)C=CC3=O)c21 [compound 69]	>10,000 ng/mL
CCn1nc(C)cc1C(=O)Nc1nc2cc(C(N)=O)cc(OC)c2n1C/C=C/Cn1c(NC(=O)c2cccnn2)nc2cc(C(N)=O)cc(OCCCN(C)C(=O)CCN3C(=O)C=CC3=O)c21 [compound 96]	>10,000 ng/mL
CCn1nc(C)cc1C(=O)Nc1nc2cc(C(N)=O)cc(OC)c2n1C/C=C/Cn1c(NC(=O)c2ccnnc2)nc2cc(C(N)=O)cc(OCCCN(C)C(=O)CCN3C(=O)C=CC3=O)c21 [compound 98]	>10,000 ng/mL
CCn1nc(C)cc1C(=O)Nc1nc2cc(C(N)=O)cc(OC)c2n1C/C=C/Cn1c(NC(=O)c2ncccn2)nc2cc(C(N)=O)cc(OCCCN(C)C(=O)CCN3C(=O)C=CC3=O)c21 [compound 101]	>10,000 ng/mL
CCn1cc(C(=O)Nc2nc3cc(C(N)=O)cc(OCCCN(C)C(=O)CCN4C(=O)C=CC4=O)c3n2C/C=C/Cn2c(NC(=O)c3cc(C)nn3CC)nc3cc(C(N)=O)cc(OC)c32)c(C)n1 [compound 102]	>10,000 ng/mL
CCn1cc(C)nc1C(=O)Nc1nc2cc(C(N)=O)cc(OCCCN(C)C(=O)CCN3C(=O)C=CC3=O)c2n1C/C=C/Cn1c(NC(=O)c2cc(C)nn2CC)nc2cc(C(N)=O)cc(OC)c21 [compound 103]	>10,000 ng/mL
CCc1cc(C(=O)Nc2nc3cc(C(N)=O)cc(OCCCN(C)C(=O)CCN4C(=O)C=CC4=O)c3n2C/C=C/Cn2c(NC(=O)c3cc(C)nn3CC)nc3cc(C(N)=O)cc(OC)c32)n(C)n1 [compound 104]	>10,000 ng/mL
CCn1nc(C)cc1C(=O)Nc1nc2cc(C(N)=O)cc(OC)c2n1C/C=C/Cn1c(NC(=O)c2cc(C)nn2C)nc2cc(C(N)=O)cc(OCCCN(C)C(=O)CCN3C(=O)C=CC3=O)c21 [compound 105]	52.5 ng/mL (≈ 0.0564 µM)

same assay, conditions: Homo sapiens, THP1-Dual; small molecules, 24 h; >10,000 nM = minimal activity up to 10 μM; some values average of multiple experiments; read-out: EC50, Lucia reporter signal

SMILES	EC50
COc1cc(C(N)=O)cc2nc(NC(=O)c3ccnnc3)n(C/C=C/Cn3c(NC(=O)c4cccnn4)nc4cc(C(N)=O)cc(O)c43)c12 [Compound 42]	> 10000 nM
CCn1nc(C)cc1C(=O)Nc1nc2cc(C(N)=O)cc(OC)c2n1C/C=C/Cn1c(NC(=O)c2cc(C)nn2CC)nc2cc(C(N)=O)cc(OCCCN(C)C(=O)CCN3C(=O)C=CC3=O)c21 [compound 12, (E)-1-(4-(5-carbamoyl-2-(1-ethyl-3-methyl-1H-pyrazole-5-carboxamido)-7-methoxy-1H-benzo[d]imidazol-1-yl)but-2-en-1-yl)-7-(3-(3-(2,5-dioxo-2,5-dihydro-1H-pyrrol-1-yl)-N-methylpropanamido)propoxy)-2-(1-ethyl-3-methyl-1H-pyrazole-5-carboxamido)-1H-benzo[d]imidazole-5-carboxamide]	37 nM
CCn1nc(C)cc1C(=O)Nc1nc2cc(C(N)=O)cc(OC)c2n1C/C=C/Cn1c(NC(=O)c2cc(C)nn2CC)nc2cc(C(N)=O)cc(OCCCN(C)C(=O)[C@H](CC(=O)OC)NC(=O)CCN3C(=O)CC(SC[C@H](N)C(=O)O)C3=O)c21 (stereo partly shown) [compound 72]	275 nM

same assay, conditions: drug linker conjugated to targeted mAb, 48 h

SMILES	relative potency / activity of ADC, Lucia reporter
CCn1nc(C)cc1C(=O)Nc1nc2cc(C(N)=O)cc(OC)c2n1C/C=C/Cn1c(NC(=O)c2cc(C)nn2CC)nc2cc(C(N)=O)cc(OCCCN(C)C(=O)OCc3ccc(O[C@@H]4O[C@H](C(=O)O)[C@@H](O)[C@H](O)[C@H]4O)cc3NC(=O)CCNC(=O)CCN3C(=O)C=CC3=O)c21 [compound 13]	more potent when conjugated to a targeted mAb via a cleavable glucuronide linker (13) than the similar compound 1 conjugate (11)

same assay, conditions: free drug, 24 h (48 h elsewhere in the source)

SMILES	relative potency of free drug, Lucia reporter
CCn1nc(C)cc1C(=O)Nc1nc2cc(C(N)=O)cc(O)c2n1C/C=C/Cn1c(NC(=O)c2cc(C)nn2CC)nc2cc(C(N)=O)cc(OCCCNC)c21 [Compound 15b]	more potent than 12a

same assay, conditions: small molecules, 24 h; >10,000 nM = minimal activity up to 10 μM; some values average of multiple experiments; read-out: EC50, Lucia reporter signal

SMILES	EC50
CCn1nc(C)cc1C(=O)Nc1nc2cc(C(N)=O)cc(O)c2n1C/C=C/Cn1c(NC(=O)c2cc(C)nn2CC)nc2cc(C(N)=O)cc(OCCCNC)c21 [Compound 15b]	5.8 nM
